# Measured values taken from patent US20250186541A1, “DLL3 TARGETING PEPTIDES AND CONSTRUCTS THEREOF” (MARIANA ONCOLOGY INC., priority 2023, published 2025).
# Numbered stars: 1 amine (or outer) side, 2 acyl side, 3 side chain; on linkers, the order of the positions; unused ones are H or OH. Bridge positions count the residues as written; N and C are the ends. Square brackets hold non-standard residues; d marks the D form. Peptide text beside a SMILES is read from it. * marks the point of attachment. Ala(1-CH2CO2H-4-piperidyl) = N[C@@H](CC1CCN(CC(=O)O)CC1)C(=O)O; Ala(piperidin-4-yl) = O=C([C@H](CC1CCN([*:3])CC1)N[*:1])[*:2]; DOTA = O=C(O)CN1CCN(CC(=O)O)CCN(CC(=O)*)CCN(CC(=O)O)CC1; Phe(4-CH2NH2) = NCc1ccc(C[C@H](N)C(=O)O)cc1; 1Nal = N[C@@H](Cc1cccc2ccccc12)C(=O)O; 2Nal = N[C@@H](Cc1ccc2ccccc2c1)C(=O)O; tBuAla = CC(C)(C)C[C@H](N)C(=O)O; dAllylGly = C=CC[C@@H](N)C(=O)O; αMeD = C[C@](N)(CC(=O)O)C(=O)O; AllylGly = C=CC[C@H](N)C(=O)O; αMeP = C[C@@]1(C(=O)O)CCCN1
# Target: T1, human DLL3 (Homo sapiens, UniProt Q9NYJ7)
# T1 construct: biotin (biotinylated)
# T1 sequence (Q9NYJ7 27-618): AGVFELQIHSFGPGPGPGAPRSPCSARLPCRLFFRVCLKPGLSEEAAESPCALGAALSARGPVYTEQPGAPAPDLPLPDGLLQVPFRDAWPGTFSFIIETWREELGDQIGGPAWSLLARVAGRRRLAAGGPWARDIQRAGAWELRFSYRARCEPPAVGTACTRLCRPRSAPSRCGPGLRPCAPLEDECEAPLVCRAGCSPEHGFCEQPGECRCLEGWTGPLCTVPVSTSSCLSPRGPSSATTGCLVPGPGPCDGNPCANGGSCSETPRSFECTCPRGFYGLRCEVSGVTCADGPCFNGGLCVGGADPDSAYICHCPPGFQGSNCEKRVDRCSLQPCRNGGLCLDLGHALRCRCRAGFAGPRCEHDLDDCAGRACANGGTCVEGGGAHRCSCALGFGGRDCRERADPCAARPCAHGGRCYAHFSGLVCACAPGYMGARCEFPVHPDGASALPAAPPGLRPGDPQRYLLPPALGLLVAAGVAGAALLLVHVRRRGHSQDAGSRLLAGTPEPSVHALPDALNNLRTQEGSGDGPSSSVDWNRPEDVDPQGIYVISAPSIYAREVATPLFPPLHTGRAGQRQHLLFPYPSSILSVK
# Assay: Affinity determination by Surface Plasmon Resonance (SPR), Biacore, 1:1 binding model
# Conditions: biotinylated human DLL3 on streptavidin chip, 25° C.; NB = nonbinding
# How it was run: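 SPR with biotinylated human DLL3 captured on a streptavidin chip, with a reference surface subtracted. Samples were injected at several concentrations at 100 μL/min in phosphate buffer with 137 mM NaCl, 2.7 mM KCl, 0.05% P20 and 2% DMSO. Kinetic and affinity constants came from a 1:1 binding fit.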
Structure (SMILES),Kd,SPR KD (nM)
"C[C@@H](NC(=O)CN1CCN(CC(=O)O)CCN(CC(=O)O)CCN(CC(=O)O)CC1)C(=O)N[C@@H](CO)C(=O)N[C@@](C)(CC(=O)O)C(=O)N[C@H]1C/C=C/C[C@@H](C(=O)N2CCC[C@@]2(C)C(=O)N[C@@H](Cc2ccccc2)C(=O)N[C@@H](CC(=O)O)C(N)=O)NC(=O)[C@H](CC(N)=O)NC(=O)[C@H](Cc2ccc3ccccc3c2)NC(=O)[C@H](CC2CCNCC2)NC(=O)[C@H](CC(C)(C)C)NC(=O)[C@H](Cc2cccc3ccccc23)NC1=O [compound 197, DOTA-(D-Ala)-S-(aMe-Asp)-AllyG(4)-(1Nal)-(t-Bu-Ala)-[3-(4-piperidinyl)-Ala]-(2Nal)-N-AllyG(4)-(aMe-P)-F-D-CONH2] ({DOTA}-[dA]S[αMeD][AllylGly][1Nal][tBuAla][Ala(piperidin-4-yl)][2Nal]N[AllylGly][αMeP]FD-NH2; staple (E) 4-10)",1.66 nM,–
"CC(=O)N[C@@H](CC1CCNCC1)C(=O)N[C@@H](CO)C(=O)N[C@@H](CC(=O)O)C(=O)N[C@H]1C/C=C\C[C@@H](C(=O)N2CCC[C@@]2(C)C(=O)N[C@@H](Cc2ccccc2)C(=O)N[C@@H](CC(=O)O)C(N)=O)NC(=O)[C@H](CC(N)=O)NC(=O)[C@H](Cc2ccc3ccccc3c2)NC(=O)[C@H](Cc2ccc(CNC(=O)CN3CCN(CC(=O)O)CCN(CC(=O)O)CCN(CC(=O)O)CC3)cc2)NC(=O)[C@H](CC(C)(C)C)NC(=O)[C@H](Cc2cccc3ccccc23)NC1=O [compound 198, Ac-(D-Ala)-S-D-AllyG(4)-(1Nal)-(t-Bu-Ala)-[PAF(DOTA)]-(2Nal)-N-AllyG(4)-(aMe-P)-F-D-CONH2] (Ac-[Ala(piperidin-4-yl)]SD[AllylGly][1Nal][tBuAla][Phe(4-CH2NH2)](DOTA)[2Nal]N[AllylGly][αMeP]FD-NH2; staple (Z) 4-10)",–,heterogenous binding
"CC(=O)N[C@@H](CC1CCNCC1)C(=O)N[C@@H](CO)C(=O)N[C@@H](CC(=O)O)C(=O)N[C@H]1C/C=C/C[C@@H](C(=O)N2CCC[C@@]2(C)C(=O)N[C@@H](Cc2ccccc2)C(=O)N[C@@H](CC(=O)O)C(N)=O)NC(=O)[C@H](CC(N)=O)NC(=O)[C@H](Cc2ccc3ccccc3c2)NC(=O)[C@H](Cc2ccc(CNC(=O)CN3CCN(CC(=O)O)CCN(CC(=O)O)CCN(CC(=O)O)CC3)cc2)NC(=O)[C@H](CC(C)(C)C)NC(=O)[C@H](Cc2cccc3ccccc23)NC1=O [compound 199, Ac-(D-Ala)-S-D-AllyG(4)-(1Nal)-(t-Bu-Ala)-[PAF(DOTA)]-(2Nal)-N-AllyG(4)-(aMe-P)-F-D-CONH2] (Ac-[Ala(piperidin-4-yl)]SD[AllylGly][1Nal][tBuAla][Phe(4-CH2NH2)](DOTA)[2Nal]N[AllylGly][αMeP]FD-NH2; staple (E) 4-10)",0.21 nM,–
"CC(=O)N[C@@H](CC1CCNCC1)C(=O)N[C@@H](CO)C(=O)N[C@@H](CC(=O)O)C(=O)N[C@H]1C/C=C\C[C@@H](C(=O)N2CCC[C@@]2(C)C(=O)N[C@@H](Cc2ccccc2)C(=O)N[C@@H](CC(=O)O)C(N)=O)NC(=O)[C@H](CC(N)=O)NC(=O)[C@H](Cc2ccc3ccccc3c2)NC(=O)[C@H](Cc2ccc(CNC(=O)CN3CCN(CC(=O)O)CCN(CC(=O)O)CCN(CC(=O)O)CC3)cc2)NC(=O)[C@H](CC(C)(C)C)NC(=O)[C@H](Cc2cccc3ccccc23)NC1=O [compound 201, Ac-[3-(4-piperidinyl)-Ala]-S-D-AllyG(4)-(1Nal)-(t-Bu-Ala)-[PAF(DOTA)]-(2Nal)-N-AllyG(4)-(aMe-P)-F-D-CONH2] (Ac-[Ala(piperidin-4-yl)]SD[AllylGly][1Nal][tBuAla][Phe(4-CH2NH2)](DOTA)[2Nal]N[AllylGly][αMeP]FD-NH2; staple (Z) 4-10)",14.6 nM,–
"CC(=O)N[C@@H](CC1CCNCC1)C(=O)N[C@@H](CO)C(=O)N[C@@H](CC(=O)O)C(=O)N[C@H]1C/C=C/C[C@@H](C(=O)N2CCC[C@@]2(C)C(=O)N[C@@H](Cc2ccccc2)C(=O)N[C@@H](CC(=O)O)C(N)=O)NC(=O)[C@H](CC(N)=O)NC(=O)[C@H](Cc2ccc3ccccc3c2)NC(=O)[C@H](Cc2ccc(CNC(=O)CN3CCN(CC(=O)O)CCN(CC(=O)O)CCN(CC(=O)O)CC3)cc2)NC(=O)[C@H](CC(C)(C)C)NC(=O)[C@H](Cc2cccc3ccccc23)NC1=O [compound 202, Ac-[3-(4-piperidinyl)-Ala]-S-D-AllyG(4)-(1Nal)-(t-Bu-Ala)-[PAF(DOTA)]-(2Nal)-N-AllyG(4)-(aMe-P)-F-D-CONH2] (Ac-[Ala(piperidin-4-yl)]SD[AllylGly][1Nal][tBuAla][Phe(4-CH2NH2)](DOTA)[2Nal]N[AllylGly][αMeP]FD-NH2; staple (E) 4-10)",0.53 nM,–

# The next lines start with the values.
Kd,SPR KD (nM),Structure (SMILES)
1.3 nM,–,"CC(=O)N[C@H](C)C(=O)N[C@@H](CO)C(=O)N[C@@H](CC(=O)O)C(=O)N[C@H]1C/C=C/C[C@@H](C(=O)N2CCC[C@@]2(C)C(=O)N[C@@H](Cc2ccccc2)C(=O)N[C@@H](CC(=O)O)C(N)=O)NC(=O)[C@H](CC(N)=O)NC(=O)[C@H](Cc2ccc3ccccc3c2)NC(=O)[C@H](Cc2ccc(CNC(=O)CN3CCN(CC(=O)O)CCN(CC(=O)O)CCN(CC(=O)O)CC3)cc2)NC(=O)[C@H](CC2CCNCC2)NC(=O)[C@H](Cc2cccc3ccccc23)NC1=O [compound 204, Ac-(D-Ala)-S-D-AllyG(4)-(1Nal)-[3-(4-piperidinyl)-Ala]-[PAF(DOTA)]-(2Nal)-N-AllyG(4)-(aMe-P)-F-D-CONH2] (Ac-[dA]SD[AllylGly][1Nal][Ala(piperidin-4-yl)][Phe(4-CH2NH2)](DOTA)[2Nal]N[AllylGly][αMeP]FD-NH2; staple (E) 4-10)"
31 nM,–,"CC(=O)N[C@@H](CC1CCN(CC(=O)O)CC1)C(=O)N[C@@H](CO)C(=O)N[C@@](C)(CC(=O)O)C(=O)N[C@H]1C/C=C\C[C@@H](C(=O)N2CCC[C@@]2(C)C(=O)N[C@@H](Cc2ccccc2)C(=O)N[C@@H](CC(=O)O)C(N)=O)NC(=O)[C@H](CC(N)=O)NC(=O)[C@H](Cc2ccc3ccccc3c2)NC(=O)[C@H](Cc2ccc(CNC(=O)CN3CCN(CC(=O)O)CCN(CC(=O)O)CCN(CC(=O)O)CC3)cc2)NC(=O)[C@H](CC(C)(C)C)NC(=O)[C@H](Cc2cccc3ccccc23)NC1=O [compound 207, Ac-[3-(piperidinyl-4-CH2CO2H)-Ala]-S-(aMe-Asp)-AllyG(4)-(1Nal)-(t-Bu-Ala)-[PAF(DOTA)]-(2Nal)-N-AllyG(4)-(aMe-P)-F-D-CONH2] (Ac-[Ala(1-CH2CO2H-4-piperidyl)]S[αMeD][AllylGly][1Nal][tBuAla][Phe(4-CH2NH2)](DOTA)[2Nal]N[AllylGly][αMeP]FD-NH2; staple (Z) 4-10)"
0.386 nM,–,"CC(=O)N[C@@H](CC1CCN(CC(=O)O)CC1)C(=O)N[C@@H](CO)C(=O)N[C@@](C)(CC(=O)O)C(=O)N[C@H]1C/C=C/C[C@@H](C(=O)N2CCC[C@@]2(C)C(=O)N[C@@H](Cc2ccccc2)C(=O)N[C@@H](CC(=O)O)C(N)=O)NC(=O)[C@H](CC(N)=O)NC(=O)[C@H](Cc2ccc3ccccc3c2)NC(=O)[C@H](Cc2ccc(CNC(=O)CN3CCN(CC(=O)O)CCN(CC(=O)O)CCN(CC(=O)O)CC3)cc2)NC(=O)[C@H](CC(C)(C)C)NC(=O)[C@H](Cc2cccc3ccccc23)NC1=O [compound 208, Ac-[3-(piperidinyl-4-CH2CO2H)-Ala]-S-(aMe-Asp)-AllyG(4)-(1Nal)-(t-Bu-Ala)-[PAF(DOTA)]-(2Nal)-N-AllyG(4)-(aMe-P)-F-D-CONH2] (Ac-[Ala(1-CH2CO2H-4-piperidyl)]S[αMeD][AllylGly][1Nal][tBuAla][Phe(4-CH2NH2)](DOTA)[2Nal]N[AllylGly][αMeP]FD-NH2; staple (E) 4-10)"
0.591 nM,–,"CC(=O)N[C@@H](CC1CCNCC1)C(=O)N[C@@H](CO)C(=O)N[C@@H](CC(=O)O)C(=O)N[C@H]1CCCC[C@@H](C(=O)N2CCC[C@@]2(C)C(=O)N[C@@H](Cc2ccccc2)C(=O)N[C@@H](CC(=O)O)C(N)=O)NC(=O)[C@H](CC(N)=O)NC(=O)[C@H](Cc2ccc3ccccc3c2)NC(=O)[C@H](Cc2ccc(CNC(=O)CN3CCN(CC(=O)O)CCN(CC(=O)O)CCN(CC(=O)O)CC3)cc2)NC(=O)[C@H](CC(C)(C)C)NC(=O)[C@H](Cc2cccc3ccccc23)NC1=O [compound 209, Ac-[3-(4-piperidinyl)-Ala]-S-D-AllyG(4)*-(1Nal)-(t-Bu-Ala)-[PAF(DOTA)]-(2Nal)-N-AllyG(4)*-(aMe-P)-F-D-CONH2]"
> 100 nM,–,"CC(=O)N[C@@H](CC1CCNCC1)C(=O)N[C@@H](CO)C(=O)N[C@@H](CC(=O)O)C(=O)N[C@@H]1C/C=C/C[C@@H](C(=O)N2CCC[C@@]2(C)C(=O)N[C@@H](Cc2ccccc2)C(=O)N[C@@H](CC(=O)O)C(N)=O)NC(=O)[C@H](CC(N)=O)NC(=O)[C@H](Cc2ccc3ccccc3c2)NC(=O)[C@H](Cc2ccc(CNC(=O)CN3CCN(CC(=O)O)CCN(CC(=O)O)CCN(CC(=O)O)CC3)cc2)NC(=O)[C@H](CC(C)(C)C)NC(=O)[C@H](Cc2cccc3ccccc23)NC1=O [compound 210, Ac-[3-(4-piperidinyl)-Ala]-S-D-D-AllyG(4)-(1Nal)-(t-Bu-Ala)-[PAF(DOTA)]-(2Nal)-N-AllyG(4)-(aMe-P)-F-D-CONH2] (Ac-[Ala(piperidin-4-yl)]SD[dAllylGly][1Nal][tBuAla][Phe(4-CH2NH2)](DOTA)[2Nal]N[AllylGly][αMeP]FD-NH2; staple (E) 4-10)"
